According to PMC7071076, “Antibacterial Activity and Pharmacokinetic Profile of a Promising Antibacterial Agent: 22-(2-Amino-phenylsulfanyl)-22-Deoxypleuromutilin” (Molecules, 2020):
Where “and” joins values, the source holds several entries; their conditions need not be identical. Equal entries are not always repeated. Where two headings read alike, the source gives them in different places.

Assay: Pharmacokinetic study in mice
Type: in vivo
Conditions: for plasma concentration, individual mice: mice 1-8 in order
Experimental: Pharmacokinetic parameters of amphenmulin were measured according to previous reports with some modifications. Each group consisted of eight female SPF-ICR mice. Amphenmulin (1 mg/mL) was administered intravenously, intraperitoneally, and orally at a dose of 10 mg/kg, respectively. Formulation of amphenmulin was a filtered solution in 5% DMSO, 5% Tween-80, and 90% normal saline. Serial samples (each 0.2 mL) were collected from the ocular venous plexus and placed in a plastic centrifuge tube. The blood samples were placed at room temperature for 20 min and transferred to a 4 °C refrigerator for 12 h to promote blood coagulation. Then samples were centrifuged at 2000 r/min for 10 min to get serum. Serum samples were frozen at −20°C. 100 µL of samples was accurately absorbed and mixed with 100 µL of acetonitrile in a 1.5 mL centrifuge tube. The sample was mixed vigorously and centrifuged at 12,000 rpm for 10 min. The supernatant was transferred, filtered through a 0.22 μm cellulose membrane filter and used for LC-MS/MS analysis. Equipment and analysis conditions were shown in supplemental data. The pharmacokinetic parameters of amphenmulin were determined from the mean plasma concentration with noncompartmental analysis in WinNonlin 5.2 software (Pharsight, Mountain View, CA, USA). Data were shown as mean ± standard deviation (SD).

[1] = female, ICR, mouse, plasma, mice, 10 mg/kg, intravenous
[2] = female, ICR, mouse, plasma, mice, 10 mg/kg, oral

For `C=C[C@]1(C)C[C@@H](OC(=O)CSc2ccccc2N)[C@]2(C)[C@H](C)CC[C@]3(CCC(=O)[C@H]32)[C@@H](C)[C@@H]1O` [Amphenmulin, 22-(2-amino-phenylsulfanyl)-22-deoxypleuromutilin], the concentration at 12 h (female, ICR, mouse, plasma, iv, 10 mg/kg, mice, intravenous 10 mg/kg, 12 h, n = 8, read-out: plasma concentration, mean ± S.D) was 50 ± 10 ng/mL, the concentration at 0.25 h (female, ICR, mouse, plasma, po, 10 mg/kg, mice, oral 10 mg/kg, 0.25 h, n = 8, read-out: plasma concentration, mean ± S.D) was 90 ± 50 ng/mL and the concentration at 0.5 h (female, ICR, mouse, plasma, po, 10 mg/kg, mice, oral 10 mg/kg, 0.5 h, n = 8, read-out: plasma concentration, mean ± S.D) was 310 ± 110 ng/mL. For the same compound, the concentration at 1 h (female, ICR, mouse, plasma, po, 10 mg/kg, mice, oral 10 mg/kg, 1 h, n = 8, read-out: plasma concentration, mean ± S.D) was 490 ± 160 ng/mL, the concentration at 2 h (female, ICR, mouse, plasma, po, 10 mg/kg, mice, oral 10 mg/kg, 2 h, n = 8, read-out: plasma concentration, mean ± S.D) was 360 ± 210 ng/mL and the concentration at 3 h (female, ICR, mouse, plasma, po, 10 mg/kg, mice, oral 10 mg/kg, 3 h, n = 8, read-out: plasma concentration, mean ± S.D) was 220 ± 150 ng/mL. For the same compound, the concentration at 4 h (female, ICR, mouse, plasma, po, 10 mg/kg, mice, oral 10 mg/kg, 4 h, n = 8, read-out: plasma concentration, mean ± S.D) was 150 ± 80 ng/mL, the concentration at 6 h (female, ICR, mouse, plasma, po, 10 mg/kg, mice, oral 10 mg/kg, 6 h, n = 8, read-out: plasma concentration, mean ± S.D) was 80 ± 30 ng/mL and the concentration at 8 h (female, ICR, mouse, plasma, po, 10 mg/kg, mice, oral 10 mg/kg, 8 h, n = 8, read-out: plasma concentration, mean ± S.D) was 50 ± 20 ng/mL. The concentration at 12 h (female, ICR, mouse, plasma, po, 10 mg/kg, mice, oral 10 mg/kg, 12 h, n = 8, read-out: plasma concentration, mean ± S.D) was 20 ± 10 ng/mL, the AUC(0-inf) [1] was 12200 ± 1350 ng·h/mL and the MRT [1] was 2.57 ± 0.19 h. It also gave a half-life [1] of 1.92 ± 0.28 h, a Vd (female, ICR, mouse, plasma, mice, 10 mg/kg, intravenous, read-out: Vz) of 2.17 ± 0.42 L/kg and an AUC(0-inf) [2] of 1670 ± 660 ng·h/mL. It also gave a Cmax [2] of 530 ± 180 ng/mL, an MRT [2] of 4.01 ± 0.62 h and a Tmax [2] of 1.37 ± 0.74 h. It also gave a bioavailability [2] of 13.7%, a half-life [2] of 2.91 ± 0.81 h and a Vd/F (female, ICR, mouse, plasma, mice, 10 mg/kg, oral, read-out: Vz/F) of 28.5 ± 9.01 L/kg. The “plasma concentration, individual mice” value (intraperitoneal 10 mg/kg, 0.083 h) was 0.94 µg/mL and 0.70 µg/mL and 0.61 µg/mL and 0.48 µg/mL and 0.79 µg/mL and 1.48 µg/mL and 0.68 µg/mL and 1.14 µg/mL, the “plasma concentration, individual mice” value (intraperitoneal 10 mg/kg, 0.25 h) was 0.98 µg/mL and 1.39 µg/mL and 1.10 µg/mL and 0.89 µg/mL and 1.15 µg/mL and 2.26 µg/mL and 1.20 µg/mL and 0.78 µg/mL and the “plasma concentration, individual mice” value (intraperitoneal 10 mg/kg, 0.5 h) was 0.81 µg/mL and 1.39 µg/mL and 1.54 µg/mL and 0.58 µg/mL and 0.89 µg/mL and 1.48 µg/mL and 0.54 µg/mL and 0.61 µg/mL. The “plasma concentration, individual mice” value (intraperitoneal 10 mg/kg, 0.75 h) was 0.42 µg/mL and 0.40 µg/mL, the “plasma concentration, individual mice” value (intravenous 10 mg/kg, 0.083 h, 10 mg/kg) was 4.5 µg/mL and 3.97 µg/mL and 3.15 µg/mL and 4.2 µg/mL and 5.1 µg/mL and 3.25 µg/mL and 4.31 µg/mL and the “plasma concentration, individual mice” value (intravenous 10 mg/kg, 0.25 h, 10 mg/kg) was 3.07 µg/mL and 3.57 µg/mL and 3.78 µg/mL and 4.44 µg/mL and 3.64 µg/mL and 4.65 µg/mL and 4.18 µg/mL. For the same compound, the “plasma concentration, individual mice” value (intravenous 10 mg/kg, 0.5 h, 10 mg/kg) was 3.66 µg/mL and 3.82 µg/mL and 3.09 µg/mL and 3.18 µg/mL and 4.31 µg/mL and 3.98 µg/mL and 3.54 µg/mL, the “plasma concentration, individual mice” value (intravenous 10 mg/kg, 0.75 h, 10 mg/kg) was 3.46 µg/mL and 4.22 µg/mL and 3.49 µg/mL and 2.98 µg/mL and 4.21 µg/mL and 3.48 µg/mL and 2.31 µg/mL and the “plasma concentration, individual mice” value (intravenous 10 mg/kg, 1 h, 10 mg/kg) was 3.90 µg/mL and 3.62 µg/mL and 3.02 µg/mL and 2.02 µg/mL and 2.52 µg/mL and 2.95 µg/mL and 3.40 µg/mL and 4.09 µg/mL. For the same compound, the “plasma concentration, individual mice” value (intravenous 10 mg/kg, 2 h, 10 mg/kg) was 1.56 µg/mL and 1.41 µg/mL and 2.31 µg/mL and 2.00 µg/mL and 2.56 µg/mL and 2.83 µg/mL and 3.14 µg/mL and 2.61 µg/mL, the “plasma concentration, individual mice” value (intravenous 10 mg/kg, 4 h, 10 mg/kg) was 0.99 µg/mL and 1.32 µg/mL and 1.00 µg/mL and 1.10 µg/mL and 0.89 µg/mL and 0.79 µg/mL and 0.94 µg/mL and the “plasma concentration, individual mice” value (intravenous 10 mg/kg, 6 h, 10 mg/kg) was 0.31 µg/mL and 0.43 µg/mL and 0.54 µg/mL and 0.52 µg/mL and 0.29 µg/mL and 0.34 µg/mL and 0.44 µg/mL. The “plasma concentration, individual mice” value (intravenous 10 mg/kg, 8 h, 10 mg/kg) was 0.10 µg/mL and 0.16 µg/mL and 0.30 µg/mL and 0.24 µg/mL and 0.19 µg/mL and 0.12 µg/mL and 0.28 µg/mL and 0.32 µg/mL, the “plasma concentration, individual mice” value (intravenous 10 mg/kg, 12 h, 10 mg/kg) was 0.03 µg/mL (2×) and 0.05 µg/mL (3×) and 0.08 µg/mL and 0.04 µg/mL and 0.06 µg/mL and the CLβ/F (mice, 10 mg/kg, intraperitoneal) was 68 ± 19 mL/min/kg. The CLβ (mice, 10 mg/kg, intravenous) was 13.7 ± 1.5 mL/min/kg and the CLβ/F (mice, 10 mg/kg, oral) was 105 ± 37.7 mL/min/kg.
